Source: patent publication US12527779B2, “Prostaglandin E2 (PGE2) EP4 receptor antagonists” (Domain Therapeutics, priority 2019, dated 2026)
Structures can show the parent of a compound that is named as a salt.

Biological target: T1, human EP4 (hEP4) receptor (Homo sapiens, UniProt P35408)
T1 construct: expressed in transfected cells; host or cells: HEK-293 T cells, transient co-transfection with polyethylenimine
Assay: In vitro human EP4 functional antagonist activity using BRET biosensors (cAMP EPAC biosensor, TCS2510 stimulation)
Assay type: cell-based
Conditions: antagonist activity vs EC60 TCS2510, hEP4 in HEK-293 T cells
In short: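 HEK-293T cells transiently co-transfected with hEP4 and EPAC cAMP BRET biosensor (luciferase/GFP), assayed 48 h later in HEPES-buffered saline after 1 h at 22 °C. After 5 min with compound, cells stimulated with EC60 TCS2510 and BRET read for 10 min; IC50 from 10-point, 4.5-log variable-slope fits, duplicate, two experiments.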

T1 sequence (P35408 whole entry): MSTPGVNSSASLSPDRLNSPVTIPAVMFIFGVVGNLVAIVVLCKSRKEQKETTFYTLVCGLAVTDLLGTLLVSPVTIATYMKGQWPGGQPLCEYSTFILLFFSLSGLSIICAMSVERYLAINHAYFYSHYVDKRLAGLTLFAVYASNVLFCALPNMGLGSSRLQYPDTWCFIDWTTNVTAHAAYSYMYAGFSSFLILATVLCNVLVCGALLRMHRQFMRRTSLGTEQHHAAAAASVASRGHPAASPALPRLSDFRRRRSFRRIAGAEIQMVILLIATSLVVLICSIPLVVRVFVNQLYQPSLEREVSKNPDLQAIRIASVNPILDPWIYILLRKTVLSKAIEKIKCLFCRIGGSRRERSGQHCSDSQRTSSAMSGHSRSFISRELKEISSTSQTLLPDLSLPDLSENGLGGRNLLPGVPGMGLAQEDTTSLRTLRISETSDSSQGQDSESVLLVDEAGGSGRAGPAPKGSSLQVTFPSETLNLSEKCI

IC50 [nM]	SMILES
< 100	C[C@H](NC(=O)C1(c2ccc(OCC3CCCCC3)cc2)CCCC1)c1ccc(C(=O)O)cc1 [Example 108, 4-[(1S)-1-[[1-[4-(Cyclohexylmethoxy)phenyl]cyclopentanecarbonyl]amino]ethyl]benzoic acid]
< 100	C[C@H](NC(=O)C1(NCCOc2cc(F)cc(F)c2)CCOCC1)c1ccc(C(=O)O)cc1 [Example 16, 4-[(1S)-1-[[4-[2-(3,5-Difluorophenoxy)ethylamino]tetrahydropyran-4-carbonyl]amino]ethyl]benzoic acid, hydrochloride]
< 100	COc1cccc(O[C@@H]2CCN(C3(C(=O)NC4(c5ccc(C(=O)O)cc5)CC4)CCOCC3)C2)c1 [Example 149, 4-[1-[[4-[(3R)-3-(3-Methoxyphenoxy)pyrrolidin-1-yl]tetrahydropyran-4-carbonyl]amino]cyclopropyl]benzoic acid, hydrochloride]
< 1000	C[C@H](NC(=O)C1(N2CC[C@@H](Oc3cccc(C(F)(F)F)c3)C2)CCOCC1)c1ccc(F)cc1 [Example 187, N—((S)-1-(4-Fluorophenyl)ethyl)-4-((R)-3-(3-(trifluoromethyl)phenoxy)pyrrolidin-1-yl)tetrahydro-2H-pyran-4-carboxamide, hydrochloride]
< 100	C[C@H](NC(=O)C1(N(C)CCOc2ccccc2)CCOC1)c1ccc(C(=O)O)cc1 (stereo partly drawn) [Example 74, 4-[(1S)-1-[[3-[Methyl(2-phenoxyethyl)amino]tetrahydrofuran-3-carbonyl]amino]ethyl]benzoic acid, hydrochloride]
< 100	C[C@H](NC(=O)C1(N(C)CCOc2cccc(Cl)c2)CCOC1)c1ccc(C(=O)O)cc1 (stereo partly drawn) [Example 75, 4-[(1S)-1-[[3-[2-(3-Chlorophenoxy)ethyl-methyl-amino]tetrahydrofuran-3-carbonyl]amino]ethyl]benzoic acid, hydrochloride]
< 100	COc1cccc(OCCN(C)C2(C(=O)N[C@@H](C)c3ccc(C(=O)O)cc3)CCCCC2)c1 [Example 60, 4-[(1S)-1-[[1-[2-(3-Methoxyphenoxy)ethyl-methyl-amino]cyclohexanecarbonyl]amino]ethyl]benzoic acid, hydrochloride]
< 1000	C[C@H](NC(=O)C1(c2ccc(OCCC3CCCCC3)nc2)CCOCC1)c1ccc(C(=O)O)cc1 [Example 122, 4-[(1S)-1-[[4-[6-(2-Cyclohexylethoxy)-3-pyridyl]tetrahydropyran-4-carbonyl]amino]ethyl]benzoic acid]
< 100	C[C@H](NC(=O)C1(NCCOc2ccccc2)CCOCC1)c1ccc(C(=O)O)cc1 [Example 1, 4-[(1S)-1-[[4-(2-Phenoxyethylamino)tetrahydropyran-4-carbonyl]amino]ethyl]benzoic acid, hydrochloride]
< 100	C[C@H](NC(=O)C1(c2ccc(OCCCc3ccccc3)cc2)CCOCC1)c1ccc(C(=O)O)cc1 [Example 92, 4-[(1S)-1-[[4-[4-(3-Phenylpropoxy)phenyl]tetrahydropyran-4-carbonyl]amino]ethyl]benzoic acid]
< 1000	C[C@H](NC(=O)C1(c2cccc(OCC3CC3)c2)CCOCC1)c1ccc(C(=O)O)cc1 [Example 101, 4-[(1S)-1-[[4-[3-(Cyclopropylmethoxy)phenyl]tetrahydropyran-4-carbonyl]amino]ethyl]benzoic acid]
< 100	C[C@H](NC(=O)C1(c2ccc(OCC3CCCCC3)nc2)CCCC1)c1ccc(C(=O)O)cc1 [Example 129, 4-[(1S)-1-[[1-[6-(Cyclohexylmethoxy)-3-pyridyl]cyclopentanecarbonyl]amino]ethyl]benzoic acid]
< 1000	C[C@H](NC(=O)C1(NCc2cccc(F)c2)CCOCC1)c1ccc(C(=O)O)cc1 [Example 20, 4-[(1S)-1-[[4-[(3-Fluorophenyl)methylamino]tetrahydropyran-4-carbonyl]amino]ethyl]benzoic acid, hydrochloride]
< 100	CN(CCOc1cccc(Cl)c1)C1(C(=O)NC2(c3ccc(C(=O)O)cc3)CC2)CCOC1 (centres unmarked) [Example 77, 4-[1-[[3-[2-(3-Chlorophenoxy)ethyl-methyl-amino]tetrahydrofuran-3-carbonyl]amino]cyclopropyl]benzoic acid, hydrochloride]
< 100	CN(CCOc1cccc(Cl)c1)C1(C(=O)NC2(c3ccc(C(=O)O)cc3)CC2)CCOCC1 [Example 29, 4-[1-[[4-[2-(3-Chlorophenoxy)ethyl-methyl-amino]tetrahydropyran-4-carbonyl]amino]cyclopropyl]benzoic acid, hydrochloride]
< 1000	C[C@H](NC(=O)C1(c2cccc(OCC3CCCCC3)n2)CCCC1)c1ccc(C(=O)O)cc1 [Example 123, 4-[(1S)-1-[[1-[6-(Cyclohexylmethoxy)-2-pyridyl]cyclopentanecarbonyl]amino]ethyl]benzoic acid]
< 1000	C[C@H](NC(=O)C1(c2ccc(OCCC3CCCCC3)cc2)CCOCC1)c1ccc(C(=O)O)cc1 [Example 95, 4-[(1S)-1-[[4-[4-(2-Cyclohexylethoxy)phenyl]tetrahydropyran-4-carbonyl]amino]ethyl]benzoic acid]
< 1000	C[C@H](NC(=O)C1(NCCOc2ccccc2)CC2(CCC2)C1)c1ccc(C(=O)O)cc1 [Example 68, 4-[(1S)-1-[[2-(2-Phenoxyethylamino)spiro[3.3]heptane-2-carbonyl]amino]ethyl]benzoic acid, hydrochloride]

The remaining lines, values behind:

SMILES	IC50 [nM]
CN(CCOc1ccccc1)C1(C(=O)NC2(c3ccc(C(=O)O)c(F)c3)CC2)CCOCC1 [Example 49, 2-Fluoro-4-[1-[[4-[methyl(2-phenoxyethyl)amino]tetrahydropyran-4-carbonyl]amino]cyclopropyl]benzoic acid, hydrochloride]	< 1000
C[C@H](NC(=O)C1(NCCOc2cccc(Cl)c2)CCCC1)C12CC(C(=O)O)(C1)C2 [Example 64, 3-[(1S)-1-[[1-[2-(3-Chlorophenoxy)ethylamino]cyclopentanecarbonyl]amino]ethyl]bicyclo[1.1.1]pentane-1-carboxylic acid, hydrochloride]	< 1000
CC(C)(C(=O)NC[C@H]1CC[C@H](C(=O)O)CC1)N1CC[C@@H](Oc2cccc(C(F)(F)F)c2)C1 [Example 201, (1R,4R)-4-((2-Methyl-2-((R)-3-(3-(trifluoromethyl)phenoxy)pyrrolidin-1-yl)propanamido)methyl)cyclohexane-1-carboxylic acid, hydrochloride]	< 100
Cc1ccc(OCCN(C)C2(C(=O)NC3(c4ccc(C(=O)O)cc4)CC3)CCOCC2)cc1 [Example 37, 4-[1-[[4-[2-(4-Methylphenoxy)ethyl-methyl-amino]tetrahydropyran-4-carbonyl]amino]cyclopropyl]benzoic acid, hydrochloride]	< 1000
C[C@H](NC(=O)C1(N2CC[C@@H](Oc3cccc(C(F)(F)F)c3)C2)CCOCC1)c1ccc(S(N)(=O)=O)cc1 [Example 178, N—((S)-1-(4-Sulfamoylphenyl)ethyl)-4-((R)-3-(3-(trifluoromethyl)phenoxy)pyrrolidin-1-yl)tetrahydro-2H-pyran-4-carboxamide, hydrochloride]	< 100
CN(CCOc1ccccc1)C1(C(=O)NC2(c3ccc(C(=O)O)cc3F)CC2)CCOCC1 [Example 50, 3-Fluoro-4-[1-[[4-[methyl(2-phenoxyethyl)amino]tetrahydropyran-4-carbonyl]amino]cyclopropyl]benzoic acid, hydrochloride]	< 100
C[C@H](NC(=O)C1(N2CC[C@@H](Oc3cccc(C(F)(F)F)c3)C2)CCOCC1)c1ccccc1Cl [Example 192, N—((S)-1-(2-Chlorophenyl)ethyl)-4-((R)-3-(3-(trifluoromethyl)phenoxy)pyrrolidin-1-yl)tetrahydro-2H-pyran-4-carboxamide, hydrochloride]	< 1000
O=C(O)c1ccc(C2(NC(=O)C3(N4CC[C@@H](Oc5ccccc5)C4)CCOCC3)CC2)cc1 [Example 153, 4-[1-[[4-((3R)-3-Phenoxypyrrolidin-1-yl)tetrahydropyran-4-carbonyl]amino]cyclopropyl]benzoic acid, hydrochloride]	< 100
COc1ccccc1[C@H](C)NC(=O)C1(N2CC[C@@H](Oc3cccc(C(F)(F)F)c3)C2)CCOCC1 [Example 197, N—((S)-1-(2-Methoxyphenyl)ethyl)-4-((R)-3-(3-(trifluoromethyl)phenoxy)pyrrolidin-1-yl)tetrahydro-2H-pyran-4-carboxamide, hydrochloride]	< 1000
C[C@H](NC(=O)C1(N2CC[C@@H](Oc3cccc(C(F)(F)F)c3)C2)CCOCC1)c1ccncc1 [Example 184, N—((S)-1-(Pyridin-4-yl)ethyl)-4-((R)-3-(3-(trifluoromethyl)phenoxy)pyrrolidin-1-yl)tetrahydro-2H-pyran-4-carboxamide, hydrochloride]	< 1000
C[C@H](NC(=O)C1(N2CC[C@@H](OC3CCCCC3)C2)CCOCC1)c1ccc(C(=O)O)cc1 [Example 154, 4-[(1S)-1-[[4-[(3R)-3-(Cyclohexyloxy]pyrrolidin-1-yl]tetrahydropyran-4-carbonyl]amino]ethyl]benzoic acid, hydrochloride]	< 100
C[C@H](NC(=O)C(C)(C)N1CC[C@@H](Oc2cccc(C(F)(F)F)c2)C1)c1ccc(C(=O)O)cc1 [Example 167, hydrochloride]	< 100
O=C(O)c1ccc(C2(NC(=O)C3(N4CCC[C@@H](Oc5cccc(Cl)c5)C4)CCOCC3)CC2)cc1 [Example 137, 4-[1-[[4-[(3R)-3-(3-Chlorophenoxy)-1-piperidyl]tetrahydropyran-4-carbonyl]amino]cyclopropyl]benzoic acid, hydrochloride]	< 100
CN(CCOc1ccc(F)cc1)C1(C(=O)NC2(c3ccc(C(=O)O)cc3)CC2)CCOCC1 [Example 34, 4-[1-[[4-[2-(4-Fluorophenoxy)ethyl-methyl-amino]tetrahydropyran-4-carbonyl]amino]cyclopropyl]benzoic acid, hydrochloride]	< 100
